How the values were obtained:
[1] = system: A-549 lung carcinoma cells; test: Visualization of cell association of fluorescent-disaccharide probe (fluorescence microscopy); type: cell-based; settings: 1 fM, five minutes at 37° C.; A-549 compared with CCL-75 normal lung fibroblasts; FIG. 5
Description: In this case, we tethered a non-fluorescent pro-fluorophore, 5(6)-carboxyfluorescein diacetate (CFSE) onto the disaccharide of bleomycin to create a BLM-sugar probe. This fluorophore should only fluoresce when acted upon by the cell, where intracellular esterases cleave the acetate groups allowing for detectable fluorescence.
Both A-549 lung carcinoma cells and CCL-75 normal lung fibroblasts were seeded on 35 mm glass cover slips at a density of 2.5×10^5 cells before incubating 48 hours to allow attachment and growth. A total effective concentration of 1 fM of the fluorescent-sugar derivative (34) and 5(6)-carboxyfluorescein diacetate N-succinimidyl ester (CFSE) compounds were added to cover slips of each cell type before incubation for five minutes at 37° C. To prepare slides for microscopy viewing, cover slips were washed in PBS and 70% ethanol solution before fixation in Histochoice MB Fixative (Electron Microscopy Sciences, Hatfield, Pa.) for 15 minutes. Fixed cover slips were mounted onto glass slides for viewing. Using the Zeiss Axiovert 200M inverted microscope (Apotome camera), fluorescent images were acquired using DIC (at 35 ms exposure time) and appropriate fluorescence filter at 470-490 nm excitation (761 ms exposure time), 40× objective magnification.

MCF-7 (Breast carcinoma) = test: Microbubble attachment to cultured cells (flow chamber, inverted microscopy); type: cell-based
Description: To create BLM A5- and deglyco BLM A5-microbubbles, the synthesized biotinylated compounds (1, 2 and 32) were conjugated to Targestar^B Targeted Ultrasound Contrast Agents (Targeson). For each of these preparations, 400 μL of Coupling Reagent (Targeson) was added to 1.5 mL of conjugated Targestar^B microbubbles and incubated for 20 min at room temperature, with gentle agitation every 5 min. The resulting product was divided into two syringes, each rinsed with 1.75 mL of Infusion Buffer, and then centrifuged for 3 min (400×g, 10° C.). The infranatant was then drained to 1 mL. For each separate preparation, […] containing 50 nM of the biotinylated compound was added to one of the vials and both were incubated at room temperature for 20 min with gentle agitation every 5 min. To each sample was added 1.75 mL of Infusion Buffer before centrifugation for 3 min at 400×g (10° C.). This solution was then drained to 1.0 mL before recovery of the supernatant and repetition of the previous step. Finally, the supernatant was resuspended in Infusion Buffer to a final volume of 2.0 mL.
Attachment of the (biotinylated BLM A5-, biotinylated deglyco BLM A5-, and biotinylated BLM A5 disaccharide-conjugated) microbubbles to the cultured cancer cells was imaged using an inverted microscope Zeiss Axiovert 200M fitted with an AxioCam MRm camera. […]

Compound: 5(6)-carboxyfluorescein diacetate N-succinimidyl ester [CFSE, reference compound]
- Fluorescence of cells after exposure to compound [1]: lack of marked fluorescence

Compound: NC(=O)O[C@@H]1[C@H](O)[C@@H](O[C@@H]2[C@H](OCCOCCNC(=O)CCCC[C@@H]3SC[C@@H]4NC(=O)N[C@@H]43)O[C@@H](CO)[C@@H](O)[C@@H]2O)O[C@H](CO)[C@H]1O [Compound 32, (2R,3S,4S,5R,6R)-2-((2R,3S,4S,5S,6S)-4,5-dihydroxy-6-(hydroxymethyl)-2-(2-(2-(5-((3aS,4S,6aR)-2-oxohexahydro-1H-thieno[3,4-d]imidazol-4-yl)pentanamido)ethoxy)ethoxy)tetrahydro-2H-pyran-3-yloxy)-3,5-dihydroxy-6-(hydroxymethyl)tetrahydro-2H-pyran-4-yl Carbamate]
- Microbubble attachment to MCF-7 cells (in words) (MCF-7 (Breast carcinoma); MCF-7 breast carcinoma cells, compound conjugated to microbubble, FIG. 3/4): greater attachment than biotinylated bleomycin A5
- Preferential attachment, tumor over normal cells (MCF-7 (Breast carcinoma); MCF-7 versus MCF-10A, conjugated onto the microbubble, FIG. 4a): preferential attachment to MCF-7 tumor cells over MCF-10A cells

Compound: CC(=O)Oc1ccc2c(c1)Oc1cc(OC(C)=O)ccc1C21OC(=O)c2cc(C(=O)NCCOCCO[C@@H]3O[C@@H](CO)[C@@H](O)[C@H](O)[C@@H]3O[C@H]3O[C@H](CO)[C@@H](O)[C@H](OC(N)=O)[C@@H]3O)ccc21 [Compound 34, (4,5)-(2-(2-((2R,3S,4S,5S,6S)-3-((2R,3S,4S,5R,6R)-4-(Carbamoyloxy)-3,5-dihydroxy-6-(hydroxymethyl)tetrahydro-2H-pyran-2-yloxy)-4,5-dihydroxy-6-(hydroxymethyl)tetrahydro-2H-pyran-2-yloxy)ethoxy)ethylcarbamoyl)-3-oxo-3H-spiro[isobenzofuran-1,9′-xanthene]-3′,6′-diyl Diacetate]
- Fluorescence of cells after exposure to compound [1]: highest fluorescence only in the tumor cell line
